ChEMBL document CHEMBL1140491, “Amino-caprolactam derivatives as gamma-secretase inhibitors” (Bioorg Med Chem Lett, 2007)

Tests used:
[1] = Ratio of drug level in brain to plasma in Tg2576 mouse at 200 mg/kg, po after 3 hrs
[2] = Drug level in Tg2576 mouse plasma at 200 µmol/kg, po after 3 hrs
[3] = Drug level in Tg2576 mouse brain at 200 µmol/kg, po after 3 hrs; conditions: read-out: Drug uptake

| Structure (SMILES) | Kp at 3 h [1] | concentration at 3 h [2] [nM] | concentration at 3 h [3] [nM] |
| --- | --- | --- | --- |
| CN(C)c1ccc(CN([C@@H]2CCCCNC2=O)S(=O)(=O)c2ccc(Cl)cc2)cc1 | 2.8 | 1600 | 4200 |
| COc1ccc(CN([C@@H]2CCCCNC2=O)S(=O)(=O)c2ccc(Cl)cc2)cc1 | 7 | 280 | 2200 |
